Measured values published in PMC8282797, “Strictly regulated agonist-dependent activation of AMPA-R is the key characteristic of TAK-653 for robust synaptic responses and cognitive improvement” (Scientific Reports, 2021).

Legend:
[1] = tested on: AMPA-R; experiment: Ca2+ influx assay using rat primary hippocampal neurons; type: cell-based; parameters: key to Single effect on Ca2+ level: -: No effect or slight effect; +: Potent; ++: Very potent; conditions: for Single effect on Ca2+ level: summary grade
Method: Ca^2+ influx assay using primary neurons was performed as previously described. After 5 days of culture, the cells plated on poly-D-lysine coated 96-well plates (Corning Incorporated) at 2 × 10^4 or 5 × 10^4 cells/well were used for experiments with PF-04958242 or TAK-653, respectively. Fluorescent calcium indicator dye solution (Calcium4 assay Kit, Dojindo, Kumamoto, Japan) in Ca^2+ reaction buffer (DMEM, HEPES and BSA) containing Probenecid (Dojindo) was added and incubated for 60 min in 5% CO2 at 37 °C. After washing once, the relative increases in intracellular Ca^2+ levels stimulated by compounds in the presence and absence of AMPA were monitored. Details are described in the Supplementary Information.
Primary cultures of hippocampal neuronal cells were prepared from fetal Sprague-Dawley rats at 19 days of gestation. Rat embryos were decapitated and their whole brains were isolated. Hippocampi were dissected in ice-cold Hanks' Balanced Salt Solutions (HBSS) under a microscope and then dispersed into cells using a neural cell dispersion kit (Sumitomo Bakelite Co., Ltd., Tokyo, Japan). The dissociated cells were suspended in Neurobasal medium containing B27 supplement (Thermo Fisher Scientific Inc.), 2 mM L-glutamine (Lonza, Basel, Switzerland), 100 U/mL penicillin (Lonza), 100 μg/mL streptomycin (Lonza) and 20 μg/mL gentamicin sulfate (Lonza). The cells were plated on poly-D-lysine coated 96-well plates (Corning Incorporated) for Ca^2+ influx assay or on poly-L-lysine coated 96-well plates (Sumitomo Bakelite) for measurement of BDNF protein levels and cultured in a humidified CO2 incubator with 5% CO2 at 37°C.
After 5 days of culture, the cells at 2×10^4 or 5×10^4 cells/well were used for experiments with PF-04958242 or TAK-653, respectively. For TAK-653, after removal of culture medium, 75 µL of fluorescent calcium indicator dye solution (Calcium4 assay Kit, Dojindo, Kumamoto, Japan) in Ca^2+ reaction buffer (DMEM, 10 mM HEPES and 0.1% BSA) containing 1.25 mM Probenecid (Dojindo) was added and incubated for 60 min in 5% CO2 at 37°C and washed once using 75 µL of fluorescent calcium indicator dye solution. After addition of 75 µL of fluorescent calcium indicator dye solution to each well again, the relative increases in intracellular Ca^2+ levels by compounds in the presence and absence of 5 μM AMPA were monitored for 8.5 min by fluorometric imaging plate reader. Activity of the compound was defined as fluorescence intensity integrated over the entire period of measurement. Intensity of 0% was defined as activity in the presence of only DMSO, while 100% was defined as activity in the presence of 5 μM AMPA and 10 μM HBT1. For PF-04958242, after removal of culture medium, 90 µL of fluorescent calcium indicator dye solution (Calcium4 assay Kit, Dojindo) in Ca^2+ reaction buffer (DMEM, 20 mM HEPES and 0.1% BSA) containing 2.5 mM Probenecid (Dojindo) was added and incubated for 60 min in 5% CO2 at 37°C. After addition of 90 µL of fluorescent calcium indicator dye solution to each well again, the relative increases in intracellular Ca^2+ levels by compounds in the presence and absence of 1 μM AMPA were monitored for 2 min in a microplate reader (CellLux, PerkinElmer, Waltham, MA, USA). Activity of the compound was defined as fluorescence intensity integrated over the entire period of measurement. 100% was defined as activity in the presence of 1 μM AMPA and 10 μM HBT1, while intensity of 0% was defined as activity in the presence of 1 μM AMPA or only DMSO for potentiator effect or agonistic effect, respectively. EC50 values were calculated by logistic regression analysis.

[2] = tested on: MK-801-induced working memory deficit in rats; experiment: Radial arm maze (RAM) test, MK-801-induced working memory deficit; type: in vivo, rat; conditions: for RAM (effective doses): summary
Method: RAM tests were performed using 9-week-old male Long-Evans rats as previously described with a minor modification. Each arm was 50 cm long, 10 cm wide and 40 cm high, and the maze was elevated 50 cm above the floor. Long-Evans rats were food-restricted to 85% of free-feeding body weight throughout the experimental period. Rats were well trained to collect pellets placed on the edge of each arm. The learning criterion for the testing session was defined as 2 errors or fewer for 2 consecutive days. In the testing session, each rat was placed on the maze facing the fixed arm at the start of the trial. The entry of rats into each arm was recorded in sequence until all pellets in the 8 arms were consumed, or 5 min had elapsed. […] Thirty min after dosing of vehicle or MK-801, rats were placed on the maze. Details are described in the Supplementary Information.
The experiment was performed using 9-week-old male Long-Evans rats as described previously (Zajaczkowski et al., 1996) with a minor modification. Each arm was 50 cm long, 10 cm wide and 40 cm high, and the maze was elevated 50 cm above the floor. After being fasted for 24 h, male Long-Evans rats were food-restricted to 85% of free-feeding body weight on the first day of exposure to the maze and throughout the experimental period. The experiment consists of two sessions, training and testing session. In the training session, rats were habituated to the maze and then trained. Reinforcement consisted of 3 food pellets (45 mg each) in the food cup was used. On the first day of habituation to the maze, reinforcements were placed near the entrance and at the mid-point of each arm. Three rats were placed on the maze at one time and allowed to explore and consume the pellets for 8 min. On the second day of habituation, each rat was placed on the maze and allowed 5 min to consume the pellets placed at the mid-point and in the food cup at the end of each arm. From the third day, reinforcement was placed in the food cup at the end of each arm. Rats were well trained to collect pellets placed on the edge of each arm. The learning criterion for the testing session was defined as 2 errors or less for two consecutive days. In the previous day of the testing session, baseline level of performance was qualified to confirm that rats completed collecting all pellets placed in the 8 arms with two errors or less. In the testing session, each rat was placed on the maze facing away from the experimenter and facing the fixed arm at the start of the trial. The entry of rats into each arm was recorded in sequence. Rats were allowed to explore until all pellets in the 8 arms were consumed, or 5 min had elapsed. Entry into an arm previously chosen was counted as an error. […] […] Thirty min after dosing of vehicle or MK-801, rats were placed on the maze. Data were indicated as the mean ± SEM in the testing session.

Cc1onc(O)c1CC(N)C(=O)O (stereo not drawn) [AMPA, alpha-amino-3-hydroxy-5-methyl-4-isoxazole-propionic acid]
Intracellular Ca2+ levels ([1]; single application): dose-dependently increased
Single effect on Ca2+ level [1]: +
Working memory in the RAM test ([2]; 0.1 to 3 mg/kg, i.p., MK-801 0.08 mg/kg, s.c.): neither LY451646 at 0.03 to 1 mg/kg, p.o. nor AMPA at 0.1 to 3 mg/kg, i.p. improve
RAM (effective doses) [2]: No effect

CC1=CN2CCS(=O)(=O)N=C2C(c2ccc(OC3CCCCC3)cc2)=N1 [TAK-653, 9-[4-(Cyclohexyloxy)phenyl]-7-methyl-3,4-dihydropyrazino[2,1-c][1,2,4]thiadiazine 2,2-dioxide]
Intracellular Ca2+ level, Agonistic effect @30 μM ([1]; absence of AMPA, % of 5 μM AMPA + 10 μM HBT1 response): 4.8%
EC50 ([1]; in the presence of 5 μM AMPA, read-out: Intracellular Ca2+ level, Potentiation EC50): 930 nM
Single effect on Ca2+ level [1]: ─
MK-801-induced deficits in RAM task ([2]; 0.1, 0.3, 3 and 10 mg/kg, p.o., MK-801 0.08 mg/kg, s.c.): significantly ameliorated
RAM (effective doses) [2]: Effective (0.1, 0.3, 3, 10)
